Experimental data as given in patent publication US5206220A (Research Corporation Technologies, Inc., priority 1991, dated 1993).
Values after ≈ are worked out from the molar mass of the structure shown. Values joined by “and” are separate entries in the source; they are usually repeats but may differ in a detail not shown here. Identical values can stand only once. Like-named read-outs stand apart in the source and are kept apart here. Peptide text beside a SMILES is read from it.

Legend:
[1] = cited from earlier work
[2] = Clearance of γ-GluGln from plasma, release of plasma glutamine; assay type: in vivo, mice; details: for Glutamine Concentration (plasma), individual mice / Glutamine Concentration (plasma), Mean + Standard Error: 29 μmoles γ-GluGln i.v.; for Glutamine Concentration (plasma), Mean + Standard Error: N = 6
Experimental: (§1) Sci. 18:233-236] or accomplished by standard amino acid analysis techniques.
Mice were injected with 29 μmoles of γ-GluGln via the external jugular vein. Control animals were injected with an equal volume of saline. Blood was sampled at 10 min. and at 60 min after injection.

[3] = γ-GluGln stability in Aminosyn-PF 10%; assay type: physicochemical; details: sterile, room temperature, one month, 4.5 and 9 months
Experimental: as §1
To determine the stability of γ-GluGln under typical storage conditions, γ-GluGln was added to Aminosyn-PF 10% under sterile conditions and left at room temperature.

[4] = storage in aqueous solution, diketopiperazine formation; cited from earlier work
[5] = test system: cells; details: cited from earlier work
[6] = molecular target: T1, γ-GTase (Mus musculus, UniProt Q60928); experiment: Effects of inhibiting γ-GTase with acivicin in mice injected with γ-GluTyr; assay type: in vivo; details: for Tyr (plasma) / Phe (plasma) / γ-GluTyr (plasma): 2.8 μmol γ-GluTyr i.v., 10 min postinjection; for γ-GluTyr excreted: lost in the urine at 60 min postinjection
T1 construct: from tissue; host or cells: live mice (whole animal; kidney named as a site of high activity)
Experimental: To test the role of γ-GTase in degradation of γ-GluTyr in vivo an additional experiment was conducted. […] Control mice received saline rather than acivicin prior to intravenous injection of 2.8 μmol of γ-GluTyr. In test mice, an intraperitoneal injection of acivicin was made 90 min prior to the injection of 2.8 μmol γ-GluTyr. Plasma was sampled after 10 min and 60 min, and urine was collected after 60 min.
The kidney is generally unable to prevent the loss of intact peptides in the urine. Instead, peptides are hydrolyzed to free amino acids, which can then be salvaged by absorption into the bloodstream. […] When γ-GTase is inhibited by acivicin, unhydrolyzed peptide should be lost in the urine. The data in Table 5 are consistent with a role for γ-GTase in the hydrolysis of γ-GluTyr to prevent its excretion in the urine. When this enzyme is inhibited by acivicin, the amount of unhydrolyzed peptide which appears in the urine in 60 min increases markedly over peptide found in the urine of control mice.

[7] = Clearance of γ-GluTyr from plasma after i.v. injection; assay type: in vivo, mice
Experimental: Injections of 20 μl of 140 mM γ-GluTyr (2.8 μmol) were made in the external jugular vein of 30-40 g mice. The amount of γ-GluTyr was measured in the plasma at 10 min and 60 min post-injection in each animal.

[8] = molecular target: T2, bovine kidney γ-GTase (Sigma Type II) (Bos taurus, UniProt G3N2D8); experiment: In vitro release of tyrosine from γ-GluTyr by γ-glutamyl transpeptidase; assay type: biochemical; details: γ-GluTyr in Aminosyn-PF 10%, pH 7.4, monitored by HPLC
T2 construct: the solution treated with bovine kidney γ-GTase (Sigma Type II) at pH 7.4; purchased Sigma Type II; host or cells: bovine kidney (tissue-derived)
Experimental: The most likely route for metabolic degradation of γ-GluTyr involves the enzyme, γ-glutamyl transpeptidase (γ-GTase), a widely distributed enzyme in mammalian tissues. In an in vitro test of this hypothesis, γ-GluTyr was added to Aminosyn-PF 10% and the solution treated with bovine kidney γ-GTase (Sigma Type II) at pH 7.4.

[9] = Stability of γ-GluTyr in a TPN amino acid solution; assay type: physicochemical; details: equal volumes 1.8 mM γ-GluTyr and Aminosyn-PF 10%, pH 5.5, ultrafiltered, room temperature, nine-month period, HPLC
Experimental: B. In a TPN amino acid solution: Equal volumes of 1.8 mM γ-GluTyr and Aminosyn-PF 10% (Abbott Laboratories) were mixed and the pH was adjusted to 5.5. The mixture thus contained similar concentrations of the peptide and of several amino acids, including phenylalanine and histidine. A sample was taken for analysis, and the remainder of the solution was sterilized by ultrafiltration and stored at room temperature (typical storage conditions for TPN amino acid solutions). Samples for analysis were also taken at intervals over a nine-month period. All samples were analyzed by HPLC as described above.

[10] = Distribution of γ-GluTyr in urine and plasma; assay type: in vivo, mice
Experimental: Urine was collected from mice injected with γ-GluTyr to determine whether or not the peptide was excreted into the urine. Mice were anesthetized with pentobarbital and then injected with 20 μl 140 mM γ-GluTyr (2.8 μmol). No urine was voided during the 60-min experiment, during which time the mice remained anesthetized. At the end of the experiment, the urinary bladders were tied off, removed and blood was collected from the heart for analysis. At the end of 60 min, a maximum of 0.13% of the injected γ-GluTyr was excreted in the urine whereas the plasma contained 12-25 μM γ-GluTyr. If these mice are assumed to have a total plasma volume of 4 ml, then only about 4% of the injected γ-GluTyr remained in the plasma at 60 min post-injection.

[11] = administered for TPN; cited from earlier work
[12] = cited from earlier work; remark: listed apart in the source
[13] = rats, 0.5 mmol/kg; same value at longer times; cited from earlier work
[14] = rats, after 24 h, cited from earlier work
[15] = cited from earlier work; remark: listed apart in the source
[16] = mice, 20 μL 140 mM γ-GluTyr, 10 min postinjection

T1 sequence (Q60928 1-379 limits assumed): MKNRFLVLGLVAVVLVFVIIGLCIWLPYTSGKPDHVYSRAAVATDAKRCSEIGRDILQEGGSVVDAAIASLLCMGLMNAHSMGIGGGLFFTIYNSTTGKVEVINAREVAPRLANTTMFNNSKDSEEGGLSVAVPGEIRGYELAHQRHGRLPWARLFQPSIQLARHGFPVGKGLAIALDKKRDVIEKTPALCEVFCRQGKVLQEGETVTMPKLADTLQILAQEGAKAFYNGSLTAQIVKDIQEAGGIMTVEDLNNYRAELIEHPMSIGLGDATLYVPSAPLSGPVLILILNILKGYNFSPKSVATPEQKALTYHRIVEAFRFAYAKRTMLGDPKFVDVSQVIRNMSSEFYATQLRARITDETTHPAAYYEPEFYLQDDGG
T1 sequence (Q60928 380-568 limits assumed): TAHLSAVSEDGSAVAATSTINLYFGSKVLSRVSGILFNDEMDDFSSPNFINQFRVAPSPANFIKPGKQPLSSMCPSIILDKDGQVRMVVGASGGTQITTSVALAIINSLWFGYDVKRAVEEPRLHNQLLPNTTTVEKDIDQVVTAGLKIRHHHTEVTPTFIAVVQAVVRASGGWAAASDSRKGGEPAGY
T2 sequence (G3N2D8 1-379 limits assumed): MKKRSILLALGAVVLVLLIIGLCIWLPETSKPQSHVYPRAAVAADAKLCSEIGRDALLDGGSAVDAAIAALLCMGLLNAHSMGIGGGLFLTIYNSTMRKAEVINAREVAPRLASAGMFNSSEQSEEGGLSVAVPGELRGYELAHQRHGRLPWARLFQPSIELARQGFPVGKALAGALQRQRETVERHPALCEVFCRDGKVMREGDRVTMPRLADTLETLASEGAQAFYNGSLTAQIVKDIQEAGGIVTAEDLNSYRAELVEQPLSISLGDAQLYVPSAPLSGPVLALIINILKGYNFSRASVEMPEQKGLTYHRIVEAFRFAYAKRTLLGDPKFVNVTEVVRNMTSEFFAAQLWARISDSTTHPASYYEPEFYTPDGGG
T2 sequence (G3N2D8 380-568 limits assumed): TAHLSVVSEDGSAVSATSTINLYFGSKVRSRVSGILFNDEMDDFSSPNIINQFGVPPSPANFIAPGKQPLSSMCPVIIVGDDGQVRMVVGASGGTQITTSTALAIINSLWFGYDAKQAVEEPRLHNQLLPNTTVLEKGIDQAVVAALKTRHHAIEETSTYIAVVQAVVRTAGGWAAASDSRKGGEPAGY

N[C@@H](CSSC[C@H](N)C(=O)O)C(=O)O [Cystine]
solubility in water [1]: 10 µg/mL (≈ 41.6 µM)

NC(=O)CC[C@H](NC(=O)CC[C@H](N)C(=O)O)C(=O)O [γ-GluGln, gamma-L-glutamyl-L-glutamine]
Glutamine Concentration (plasma), individual mice ([2]; 10 min): 675 µM and 762 µM and 614 µM and 693 µM and 681 µM and 770 µM | Glutamine Concentration (plasma), Mean + Standard Error ([2]; 10 min): 699 ± 24 µM | Glutamine Concentration (plasma), individual mice ([2]; 60 min): 565 µM and 586 µM and 457 µM and 198 µM and 555 µM and 629 µM | Glutamine Concentration (plasma), Mean + Standard Error ([2]; 60 min): 498 ± 64 µM | mice with γ-GluGln detected in the plasma ([2]; 29 μmoles γ-GluGln via external jugular vein, 10 min): three of six | appearance of γ-GluGln in the urine ([2]; mice not pretreated with acivicin): did not appear in the urine | stability of γ-GluGln under typical storage conditions [3]: remained stable

C[C@H](N)C(=O)N[C@@H](CCC(N)=O)C(=O)O [AlaGln, alanylglutamine] (H-Ala-Gln-OH)
stability in aqueous solution [4]: unstable during prolonged storage in aqueous solution

N[C@@H](CCC(=O)N[C@@H](CS)C(=O)NCC(=O)O)C(=O)O [GSH, gamma-glutamyl-cysteinylglycine, reference compound]
transport into cells [5]: does not appear to be transported into cells

N[C@@H](CCC(=O)N[C@@H](Cc1ccc(O)cc1)C(=O)O)C(=O)O [γ-GluTyr, gamma-L-glutamyl-L-tyrosine]
Tyr (plasma) ([6]; acivicin + (2 mg/30 g mouse i.p. 90 min before)): 96 ± 1 µM | Phe (plasma) ([6]; acivicin +): 96 ± 6 µM | γ-GluTyr (plasma) ([6]; acivicin +): 247 ± 17 µM | γ-GluTyr excreted ([6]; acivicin +): 16-48 % of total | Tyr (plasma) ([6]; acivicin - (saline)): 126 ± 14 µM | Phe (plasma) ([6]; acivicin -): 89 ± 8 µM | γ-GluTyr (plasma) ([6]; acivicin -): 112 ± 15 µM | γ-GluTyr excreted ([6]; acivicin -): 0.05-0.19 % of total | clearance of γ-GluTyr from plasma ([7]; mice 30-40 g, 20 μl of 140 mM (2.8 μmol) external jugular vein, 10 min to 60 min post-injection): 2.2 to 2.6 µM/min | Plasma Phe [7, 16]: 89 ± 8 µM | Plasma Tyr [7, 16]: 126 ± 14 µM | increase of plasma concentration of tyrosine ([7]; mice, 40 μl of 140 mM γ-GluTyr, between 5 and 10 min post-injection): 32% | fall of plasma concentration of tyrosine ([7]; mice, 40 μl of 140 mM γ-GluTyr, between 10 and 60 min post-injection): 32% | clearance rate of γ-GluTyr from plasma ([7]; mice, 40 μl of 140 mM, external jugular vein): 6.8 µM/min | release of tyrosine from γ-GluTyr by the enzyme [8]: released tyrosine | levels of γ-GluTyr and tyrosine during storage [9]: unchanged | peptide hydrolyzed and available as free tyrosine and glutamic acid ([10]; 60 min post-injection): at least 96% | injected γ-GluTyr remaining in the plasma ([10]; 60 min post-injection, assumed total plasma volume of 4 ml): about 4% | plasma γ-GluTyr ([10]; anesthetized mice, 2.8 μmol i.v., 60 min): 12 to 25 µM | injected γ-GluTyr excreted in the urine ([10]; anesthetized mice, 2.8 μmol i.v., at the end of 60 min): ≤ 0.13% | partitioning into red blood cells ([10]; previous studies): not partitioned into red blood cells

CC(=O)N[C@@H](CSSC[C@H](NC(C)=O)C(=O)O)C(=O)O [N,N'-bis-acetylcystine]
urinary losses [11]: large urinary losses

Cl.N[C@@H](CS)C(=O)O [Cysteine-HCl, Cysteine-hydrochloride]
plasma ratio of cysteine to methionine (Cys/Met) ([12]; infants on TPN supplemented with L-cysteine-HCL): 0.6 | adverse effect in TPN ([12]; some treated low-birth-weight infants): implicated in the production of acidosis

NCC(=O)N[C@@H](Cc1ccc(O)cc1)C(=O)O [GlyTyr, L-glycyl-L-tyrosine] (H-Gly-Tyr-OH)
rise of plasma tyrosine levels compared with AlaTyr [13]: did not increase as rapidly | stability in aqueous solution [4]: unstable during storage in aqueous solution

C[C@H](N)C(=O)N[C@@H](Cc1ccc(O)cc1)C(=O)O [AlaTyr, L-alanyl-L-tyrosine] (H-Ala-Tyr-OH)
plasma tyrosine levels ([14]; 0.5 mmol/kg/day): unchanged | plasma tyrosine levels ([14]; 2 mmol/kg/day): increased two-fold | stability in aqueous solution [4]: unstable in aqueous solution

N[C@@H](CCC(=O)N[C@@H](CSSC[C@H](NC(=O)CC[C@H](N)C(=O)O)C(=O)O)C(=O)O)C(=O)O [(γ-GluCys)2, N,N'-bis(γ-glutamyl)cystine]
transport into cells [5]: are transported

NC(CCC(=O)NC(CSSCC(N)C(=O)O)C(=O)O)C(=O)O [γ-Glu(Cys)2, γ-L-glutamyl-L-cystine]
transport into cells [5]: are transported

CC(=O)N[C@@H](CS)C(=O)O [NAcCys, N-acetylcysteine]
NAcCys levels (plasma) ([15]; four hours after administration (from 2)): 488 µmol/L | plasma levels of cysteine ([15]; four hours after administration of 5 g cysteine in a 200 mg/ml solution as NAcCys (basal 207)): 134 µM | administered NAcCys excreted in the urine ([15]; within 4 h): 11%

NCC(=O)N[C@@H](CCC(N)=O)C(=O)O [GlyGln, glycylglutamine] (H-Gly-Gln-OH)
stability in aqueous solution [4]: unstable during prolonged storage in aqueous solution
